In patent publication US11643430B2, “Porphyrin compound or salt thereof, cancer therapeutic agent, photosensitizer, and fluorescent probe” (M.T.3, Inc., priority 2020, dated 2023):

Experiments:
[1] = standard for determination of ΦΔ; cited from earlier work
[2] = Fluorescence quantum yield, absolute PL quantum yield spectrometer; format: physicochemical
Procedure: (§1) Next, the fluorescence quantum yields (Φf) and fluorescence lifetimes (τf) of the compounds were measured. Moreover, the quantum yields (ΦΔ) of singlet oxygen generated from the compounds of Structural Formulae (IIa) and (III) were measured.

[3] = Fluorescence lifetime from fluorescence decay curves; format: physicochemical; settings: monoexponential curve fitting, deconvolution method
Procedure: as §1
Each of the fluorescence decay curves was subjected to curve fitting with a monoexponential function using a deconvolution method, and thus τf was determined.

[4] = Quantum yield of singlet oxygen by 1270 nm phosphorescence; format: physicochemical; settings: in ethanol, absorbance 0.1, irradiated at 355 nm, phosphorescence at 1270 nm, TPPS standard; sodium salt
Procedure: as §1
Next, the measurement of ΦΔ will be described. First, the compounds of Structural Formula (IIa) and (III) were each dissolved in ethanol at such a concentration that gave an absorbance of 0.1, and then were irradiated with light at 355 nm using Nd^3+:YAG LASER (LS-2137U, manufactured by Lotis TII). Next, singlet oxygen was measured using a self-produced infrared emission measurement apparatus in which a near-infrared photomultiplier tube (R5509-42, manufactured by Hamamatsu Photonics K.K.) is used. It should be noted that singlet oxygen was measured 17 times, and the average value was shown as a phosphorescence spectrum in FIG. 4. Singlet oxygen emits phosphorescence at a near-infrared wavelength 1270 nm. Therefore, in this specification, ΦΔ was determined by measuring the intensity of such phosphorescence. TPPS (ΦΔ=0.63) was used as a standard substance for determination of ΦΔ. ΦΔ of the compound of Structural Formula (IIa) and ΦΔ of the compound of Structural Formula (III) were determined as 0.57 and 0.53, respectively.

[5] = test system: Human-derived A549 cells; assay: Efficiency of uptake by cancer cells; format: cell-based; settings: 3 μM, 12 hours incubation, fluorescence ex 418 nm / em 646 nm
Excerpt: The compound of Structural Formula (III) to which a sulfur-containing sugar-chain is linked is more likely to accumulate in tumor. Regarding such an improvement in the accumulation, the following describes the evaluation of the efficiency of uptake of the compounds of structural Formulae (IIa) and (III) by cancer cells.
Human-derived A549 cells were used as cancer cells. Dulbecco's Modified Eagle Medium (DMEM) supplemented with 10% Fetal Bovine Serum (FBS: manufactured by EQUITECH-BIO, INC.) and 1% Penicillin Streptomycin Glutamine (Invitrogen (trademark)) was used as a culture medium, which will be described later. Phosphate buffered saline (PBS) was used as a cell washing solution, and PBS containing 0.05% trypsin and 0.02% EDTA was used as a cell detaching solution. A circular plastic petri dish (Greiner Bio-one, 628160) with a diameter of 6 cm was used as a culture container.
First, an A549 cell suspension was cultured on a culture medium. 100 μL of the cell suspension was added to each well of a black 96-well plate and cultured at 37° C. in a 5% CO2 atmosphere for a day. […] Furthermore, the concentrations of the photosensitizing agents inside the cells were quantified using a fluorescence micro plate reader (Infinite M200 Pro, manufactured by TECAN). For the fluorescence observation, the excitation wavelength was 418 nm, and the observation wavelength was 646 nm. […]

Row | Compound | quantum yield of singlet oxygen (ΦΔ) of standard substance [1] | fluorescence quantum yield (Φf) [2] | fluorescence lifetime (τf) [3] | quantum yield of singlet oxygen (ΦΔ) [4] | relative uptake efficiency versus compound of Structural Formula (III) [5] [times]
1 | O=S(=O)(O)c1ccc(-c2c3nc(c(-c4ccc(S(=O)(=O)O)cc4)c4ccc([nH]4)c(-c4ccc(S(=O)(=O)O)cc4)c4nc(c(-c5ccc(S(=O)(=O)O)cc5)c5ccc2[nH]5)C=C4)C=C3)cc1 [TPPS] | 0.63 | – | – | – | –
2 | COC(=O)c1cc(-c2c3nc(c(-c4cc(C(=O)OC)cc([Si](C)(C)C)c4)c4ccc([nH]4)c(-c4cc(C(=O)OC)cc([Si](C)(C)C)c4)c4nc(c(-c5cc(C(=O)NCCCO[C@H]6O[C@H](CO)[C@@H](O)[C@H](O)[C@H]6O)cc([Si](C)(C)C)c5)c5ccc2[nH]5)C=C4)C=C3)cc([Si](C)(C)C)c1 [IId, 3-trimethylsilyl-1-benzenecarboxyamide,N-[3-n-propyl-α-D-glucopyranoside]-5-[10,15,20-tris(3-methoxycarbonyl-5-trimethylsilylphenyl)porphyrin]] | – | 0.056 | 9.3 | – | –
3 | 3-trimethylsilyl-1-benzenecarboxyamide,N-[3-n-propyl-α-D-quinovopyranoside]-5-[10,15,20-tris(3-methoxycarbonyl-5-trimethylsilylphenyl)porphyrin] sodium salt [IIa] | – | 0.063 | 9.2 | 0.53 | 1.8
